Tested on: subjects with T2DM and renal impairment
Assay: Phase 2a: continuous glucose monitoring (CGM)
Type: in vivo, human
Details: ITT; for Time in target range, LS Mean Change / Percentage of Time CGM Glucose Within Target Range (70-180 mg/dL), Mean / Percentage of Time CGM Glucose Within Target Range (70-180 mg/dL), Median / Time in target range, Change from Baseline (Days −8 to −2), Mean / Time in target range, Change from Baseline (Days −8 to −2), Median / Time in target range, Difference in LS Mean Change (vs Placebo): 100 μg Dose (Days 5 to 11)
Method: Cotadutide was titrated from 50 μg up to 300 μg and administered once daily by subcutaneous (SC) injection over 32 days.
Cotadutide was administered at 50 μg once daily for 4 days, followed by 100 μg daily for 7 days, 200 μg daily for 7 days, and 300 μg daily for 14 days (n=20). Placebo was administered one daily for 32 days (n=20). Cotadutide and placebo were administered in the morning. Dosing commenced following predose baseline vital signs, blood tests (including HbA1c), an electrocardiogram (ECG), body weight measurement, and bioimpedance spectroscopy (BIS). Subjects then returned for daily dosing or remained overnight locally until Day 5, and thereafter, had visits at weekly intervals until a maintenance dose of 300 μg was established. Thus, Cotadutide or placebo was administered at the study site by study personal for the first four doses and on site on Days 5, 12, 19, and 32. At all other times, subjects preformed dosing at home.
A Freestyle Libre® Pro CGM device was used to measure interstitial glucose levels. […] Data generated by CGM was used at visits to adjust insulin doses and other treatments.
The CGM sensor, which is a small plastic circular device of 35 mm diameter and 5 mm depth, was applied to the back of the upper arm. Subjects wore the CGM sensor continuously up until the time of a sensor change, which was to occur within 14 days, and they were advised that they could bathe and shower, and swim in up to 3 m depth for up to 30 minutes while wearing the CGM sensor. When the CGM sensor was removed, a new CGM sensor could be reapplied, ideally close to the original site, but with the subject's site preference taken into account. CGM sensors were single-use only.
If a subject was unable to tolerate wearing the CGM sensor for the entire duration of the study, the sensor was removed; but the subject was to remain in the study with or without continued CGM and could instead be instructed to monitor capillary plasma glucose measurements four times per day (before meals and before bedtime) and record these levels in the diary provided.
Subjects underwent continuous glucose monitoring (CGM) starting from Day −14 to Day 40 (±5 days), with sensor changes within 14-day intervals. CGM readings were used to analyze change in average CGM glucose and glucose AUC7 d, coefficient of variation as a marker of glycemic variability, and time spent in target glucose range and hypoglycemia, to enable comparison across different dose levels.

[1] = 50 μg (Days 1 to 4, not 7 days), baseline Days −8 to −2, ANCOVA
[2] = 100 μg (Days 5 to 11), baseline Days −8 to −2, ANCOVA
[3] = 100 μg (Days 5 to 11), baseline Days −8 to −2

**Q.** How did the “Percentage of time CGM Glucose in Clinically Significant Hypoglycemia (<54 mg/dL), Difference in LS Mean Change (vs Placebo)” value [1] turn out when CCCCCCCCCCCCCCCC(=O)N[C@@H](CCC(=O)NCCCC[C@H](NC(=O)[C@H](CC(=O)O)NC(=O)[C@H](CO)NC(=O)[C@@H](NC(=O)[C@H](Cc1ccccc1)NC(=O)[C@@H](NC(=O)CNC(=O)[C@H](CCC(N)=O)NC(=O)[C@H](CO)NC(=O)[C@@H](N)Cc1c[nH]cn1)[C@@H](C)O)[C@@H](C)O)C(=O)N[C@@H](CO)C(=O)N[C@@H](CCC(=O)O)C(=O)N[C@@H](Cc1ccc(O)cc1)C(=O)N[C@@H](CC(C)C)C(=O)N[C@@H](CC(=O)O)C(=O)N[C@@H](CO)C(=O)N[C@@H](CCC(=O)O)C(=O)N[C@@H](CCCNC(=N)N)C(=O)N[C@@H](C)C(=O)N[C@@H](CCCNC(=N)N)C(=O)N[C@@H](CC(=O)O)C(=O)N[C@@H](Cc1ccccc1)C(=O)N[C@H](C(=O)N[C@@H](C)C(=O)N[C@@H](Cc1c[nH]c2ccccc12)C(=O)N[C@@H](CC(C)C)C(=O)N[C@@H](CCC(=O)O)C(=O)N[C@@H](C)C(=O)NCC(=O)NCC(=O)O)C(C)C)C(=O)O [Cotadutide] was run?
**A.** Its value is 5.28%.

**Q.** What about the “Percentage of time CGM Glucose in Clinically Significant Hypoglycemia (<54 mg/dL), LS Mean Change” value [1] of the same compound?
**A.** The value was 4.79%.

**Q.** And the “Average CGM Glucose Over 7-Day Periods, End of Dosing Period, Mean” value (100 μg (Days 5 to 11))?
**A.** Its value is 127.599 mg/dL.

**Q.** What about the “Average CGM Glucose Over 7-Day Periods, End of Dosing Period, Median” value (100 μg (Days 5 to 11)) of the same compound?
**A.** The value was 122.769 mg/dL.

**Q.** And the “Percentage of time CGM Glucose in Hyperglycemia (>180 mg/dL), End of Dosing Period, Mean” value (100 μg (Days 5 to 11))?
**A.** The value was 10.46%.

**Q.** And the “Percentage of time CGM Glucose in Hyperglycemia (>180 mg/dL), End of Dosing Period, Median” value (100 μg (Days 5 to 11))?
**A.** The value was 3.72%.

**Q.** What about the “Average CGM Glucose Over 7-Day Periods, Difference in LS Mean Change (vs Placebo)” value [2] of the same compound?
**A.** Its value is -46.73 mg/dL.

**Q.** What about the “Average CGM Glucose Over 7-Day Periods, LS Mean Change” value [2] of the same compound?
**A.** The value was -36.35 mg/dL.

**Q.** What about the “Percentage of time CGM Glucose in Clinically Significant Hypoglycemia (<54 mg/dL), Difference in LS Mean Change (vs Placebo)” value [2] of the same compound?
**A.** Its value is 2.25%.

**Q.** And the “Percentage of time CGM Glucose in Clinically Significant Hypoglycemia (<54 mg/dL), LS Mean Change” value [2]?
**A.** The value was 1.41%.

**Q.** What about the “Percentage of time CGM Glucose in Hyperglycemia (>180 mg/dL), Difference in LS Mean Change (vs Placebo)” value [2] of the same compound?
**A.** The value was −29.72%.

**Q.** And the “Percentage of time CGM Glucose in Hyperglycemia (>180 mg/dL), LS Mean Change” value [2]?
**A.** The value was −24.62%.

**Q.** What about the “Percentage of time CGM Glucose in Hypoglycemia (<70 mg/dl), Difference in LS Mean Change (vs Placebo)” value [2] of the same compound?
**A.** The value was 2.80%.

**Q.** What about the “Percentage of time CGM Glucose in Hypoglycemia (<70 mg/dl), LS Mean Change” value [2] of the same compound?
**A.** The value was 2.26%.

**Q.** And the “Average CGM Glucose Over 7-Day Periods, Change from Baseline to End of Dosing Period, Mean” value [3]?
**A.** Its value is -35.628 mg/dL.

**Q.** And the “Average CGM Glucose Over 7-Day Periods, Change from Baseline to End of Dosing Period, Median” value [3]?
**A.** Its value is -31.685 mg/dL.

**Q.** And the “Percentage of time CGM Glucose in Hyperglycemia (>180 mg/dL), Change from Baseline to End of Dosing Period, Mean” value [3]?
**A.** The value was −24.45%.

**Q.** What about the “Percentage of time CGM Glucose in Hyperglycemia (>180 mg/dL), Change from Baseline to End of Dosing Period, Median” value [3] of the same compound?
**A.** The value was −19.57%.

**Q.** What about the “Time in target range, LS Mean Change” value (ANCOVA, Insulin Dose < 20 U/day) of the same compound?
**A.** Its value is 26.25%.

**Q.** What about the “Time in target range, LS Mean Change” value (ANCOVA, Insulin Dose ≥ 20 U/day) of the same compound?
**A.** The value was 3.59%.

**Q.** And the “Time in target range, LS Mean Change” value (ANCOVA, Total)?
**A.** The value was 12.25%.

**Q.** And the “Percentage of Time CGM Glucose Within Target Range (70-180 mg/dL), Mean” value (“Percentage … (70-180 mg/dL), Mean” below) (Insulin Dose < 20 U/day)?
**A.** Its value is 94.44%.

**Q.** And the “Percentage of Time CGM Glucose Within Target Range (70-180 mg/dL), Median” value (“Percentage … (70-180 mg/dL), Median” for short) (Insulin Dose < 20 U/day)?
**A.** Its value is 97.79%.

**Q.** What about the “Time in target range, Change from Baseline (Days −8 to −2), Mean” value (“Time in target range, Change … Mean” below) (Insulin Dose < 20 U/day) of the same compound?
**A.** The value was 31.19%.

**Q.** What about the “Time in target range, Change from Baseline (Days −8 to −2), Median” value (“Time in target range, Change … Median” for short) (Insulin Dose < 20 U/day) of the same compound?
**A.** The value was 33.99%.

**Q.** What about the “Time in target range, Difference in LS Mean Change (vs Placebo)” value (Insulin Dose < 20 U/day) of the same compound?
**A.** The value was 44.84%.

**Q.** And the “Percentage … (70-180 mg/dL), Mean” value (Insulin Dose ≥ 20 U/day)?
**A.** Its value is 66.51%.

**Q.** And the “Percentage … (70-180 mg/dL), Median” value (Insulin Dose ≥ 20 U/day)?
**A.** The value was 77.04%.

**Q.** What about the “Time in target range, Change … Mean” value (Insulin Dose ≥ 20 U/day) of the same compound?
**A.** The value was 2.53%.

**Q.** What about the “Time in target range, Change … Median” value (Insulin Dose ≥ 20 U/day) of the same compound?
**A.** The value was 12.04%.

**Q.** And the “Time in target range, Difference in LS Mean Change (vs Placebo)” value (Insulin Dose ≥ 20 U/day)?
**A.** The value was 8.32%.

**Q.** What about the “Percentage … (70-180 mg/dL), Mean” value (Total) of the same compound?
**A.** The value was 75.82%.

**Q.** What about the “Percentage … (70-180 mg/dL), Median” value (Total) of the same compound?
**A.** The value was 84.38%.

**Q.** What about the “Time in target range, Change … Mean” value (Total) of the same compound?
**A.** Its value is 11.58%.

**Q.** And the “Time in target range, Change … Median” value (Total)?
**A.** The value was 14.94%.

Reference: patent US20210213104A1, “GLUCAGON AND GLP-1 CO-AGONISTS FOR THE TREATMENT OF CHRONIC KIDNEY DISEASE AND DIABETIC KIDNEY DISEASE IN TYPE 2 DIABETES” (MEDIMMUNE LIMITED, priority 2020, published 2021)
